Five compounds from publication PMC9635472, “Design, synthesis, and biological evaluation of novel ciprofloxacin derivatives as potential anticancer agents targeting topoisomerase II enzyme” (Journal of Enzyme Inhibition and Medicinal Chemistry, 2022) can be followed below.

Data set [1] concerns human prostate carcinoma (PC-3) cell line. The data set can be described thus: MTT cell viability assay, PC-3 cells. The settings on record: prostate cancer cell line PC-3, treatment for 24 h (table title), means of three experiments, read-out: IC50 (μM* ± SD) PC-3. Type of data set: cell-based. The procedure:
(§1) Human bladder cancer (T-24) and human prostate carcinoma (PC-3) cell lines were obtained from American Type Culture Collection (ATCC; Manassas, VA USA). Cells were maintained in Dulbecco’s modified Eagle medium with 10% foetal bovine serum at 37 °C and 5% CO2. All the operations were carried out under strict aseptic conditions. The culture medium was removed to a centrifuge tube containing 9.0 ml complete culture medium and spanned at approximately 125 × g for 5 to 7 min. The cell layer was rinsed with 0.25% (w/v) trypsin- […] EDTA solution by which all traces of serum-containing inhibitor were removed. Trypsin EDTA solution 2.0 to 3.0 ml was added to a flask and cells were monitored under an inverted microscope until the cell layer was dispersed (usually within 5–15 min). A complete growth medium was added (6.0–8.0 ml), and cells were aspirated by gentle pipetting. The cell pellet was suspended with the recommended complete medium and dispensed into a 75 cm^2 culture flask. The culture vessel containing the complete growth medium was placed in the incubator for 24 h to at 37 °C. The cells were treated with different concentrations (0.39, 1.60, 6.25, 25, and 100 μg/ml) of each of the test compounds or doxorubicin, […], then the plates were examined under the inverted microscope and finally the MTT assay was carried out.
(§2) Anti-cancer activity of the newly synthesised compounds was evaluated in vitro against both T-24 and PC-3 cell lines according to the MTT method. Cells were seeded into 96-well plates (flat bottom) at a density of 10 000 cells/well for 24 h. The vial of MTT to be used was reconstituted with 3 ml of medium or balanced salt solution without phenol red and serum. then, a reconstituted MTT vial was added in an amount equal to 10% of the culture medium volume. Cultures were incubated for 2–4 h depending on the cell type and maximum cell density and removed from the incubator and the formazan crystals were dissolved via the addition of an amount of MTT solubilisation solution (M-8910) equal to the original culture medium volume. ROBONIK P2000 spectrophotometer at a wavelength of 570 nm was used to measure the colour intensity spectrophotometrically. The survival curve of both T-24 and PC-3 cells was obtained by plotting the percentage of surviving cells against the drug after each compound. The IC50 value for each test compound and the reference drug doxorubicin was calculated.
(§3) In this study, all the newly synthesised CP derivatives were subjected to anticancer activity evaluation against bladder (T-24) and prostate cancer (PC-3) cell lines. The compounds were evaluated for their activity using 5 doses determinations (100 μg/ml, 25 μg/ml, 6.25 μg/ml, 1.60 μg/ml, and 0.39 μg/ml). Their half-maximal inhibitory concentration (IC50) values were measured. Doxorubicin was chosen as a reference anticancer drug[65].
In general terms: Tetrazolium assays rely on reduction of a dye to a coloured formazan, in cell work by metabolically active cells.

Data set [2] relates to Human bladder cancer (T-24) cell line. In words: MTT cell viability assay, T-24 cells. Type of data set: cell-based. The following applies: bladder cancer cell line T-24, treatment for 24 h (table title), means of three experiments, read-out: IC50 (μM* ± SD) T-24. The method, then: as §1, §2, §3
Data set [3] deals with T1, human DNA Topo II (Homo sapiens, UniProt P11388).
T1 construct: purchased USB Corp., USA
The data set can be described thus: In vitro DNA Topo II-mediated relaxation assay (supercoiled pBR322). Type of data set: biochemical. The following applies: for IC50: means of three experiments, read-out: Topo II IC50 (µM*±SD); for inhibition at 0.1 µM / inhibition at 1 µM / inhibition at 10 µM / inhibition at 100 µM: recombinant Topo II relaxation; for inhibition at 0.1 µM: compound at 0.1 μM, read-out: Percentage of inhibition of Topo II, 0.1 μM; for inhibition at 1 µM: compound at 1 μM, read-out: Percentage of inhibition of Topo II, 1 μM; for inhibition at 10 µM: compound at 10 μM, read-out: Percentage of inhibition of Topo II, 10 μM; for inhibition at 100 µM: compound at 100 μM, read-out: Percentage of inhibition of Topo II, 100 μM. The procedure:
DNA Topo II inhibitory activities of the targeted compounds were measured as follows. A mixture of 100 ng of supercoiled pBR322 plasmid DNA (Fermentas, USA) and 2 units of human DNA Topo II (USB Corp., USA) was incubated with and without the prepared compounds in the assay buffer (10 µM Tris-HCl pH 7.9) containing 50 µM NaCl, 4 µM MgCl2, 1 µM EDTA, 1 µM ATP, and 15 mg/ml bovine serum albumin for 30 min at 37 °C. The reaction in a final volume of 10 µl was terminated by the addition of 4 µl of 6 µM EDTA. DNA samples were then electrophoresed on 1% agarose gel containing 0.5 µg/ml ethidium bromide in gel and buffer at high voltage (100–250 v) until the dye front has migrated about 4–6 cm down the gel. with a running buffer of TAE Tris-acetate– EDTA (TAE). Gels were stained for 15 min in water. DNA bands were visualised by transillumination with UV light and quantitated using AlphaI-maker TM (Alpha Innotech Corporation).
Well-known Topo II inhibitor doxorubicin was used as a positive control. The reaction products of Topo II relaxation assays were analysed by electrophoretic mobility and developed in ethidium bromide in the presence of UV light. The inhibitory activities were evaluated at 4 concentrations of 100, 10, 1, and 0.1 μM for all compounds as shown in (Figure 6). Topo II inhibitory activities of the tested compounds are summarised in (Table 2).

Data set [4] relates to active caspase-3. The data set can be described thus: Active caspase-3 ELISA in T-24 cells. Type of data set: cell-based, human. The settings on record: 6 at 5.68 μM, 8a at 3.36 μM, means of three experiments. The method, then: The level of the apoptotic marker caspase-3 was measured using The Invitrogen Caspase-3 (active) Human ELISA Kit. The procedure of the used kit was done according to the manufacturer’s instructions.
Caspase-3 (a key effector enzyme) plays an important role in apoptosis since its activation leads to catalysing specific enzymes responsible for DNA fragmentation, which leads to cell death. Apoptosis induction in T-24 cells by compounds 6 and 8a was investigated via caspase 3, compared to doxorubicin as a reference drug.
In general terms: In an ELISA, binding on a coated surface is turned into a signal by an enzyme label.

T1 sequence (P11388 whole entry): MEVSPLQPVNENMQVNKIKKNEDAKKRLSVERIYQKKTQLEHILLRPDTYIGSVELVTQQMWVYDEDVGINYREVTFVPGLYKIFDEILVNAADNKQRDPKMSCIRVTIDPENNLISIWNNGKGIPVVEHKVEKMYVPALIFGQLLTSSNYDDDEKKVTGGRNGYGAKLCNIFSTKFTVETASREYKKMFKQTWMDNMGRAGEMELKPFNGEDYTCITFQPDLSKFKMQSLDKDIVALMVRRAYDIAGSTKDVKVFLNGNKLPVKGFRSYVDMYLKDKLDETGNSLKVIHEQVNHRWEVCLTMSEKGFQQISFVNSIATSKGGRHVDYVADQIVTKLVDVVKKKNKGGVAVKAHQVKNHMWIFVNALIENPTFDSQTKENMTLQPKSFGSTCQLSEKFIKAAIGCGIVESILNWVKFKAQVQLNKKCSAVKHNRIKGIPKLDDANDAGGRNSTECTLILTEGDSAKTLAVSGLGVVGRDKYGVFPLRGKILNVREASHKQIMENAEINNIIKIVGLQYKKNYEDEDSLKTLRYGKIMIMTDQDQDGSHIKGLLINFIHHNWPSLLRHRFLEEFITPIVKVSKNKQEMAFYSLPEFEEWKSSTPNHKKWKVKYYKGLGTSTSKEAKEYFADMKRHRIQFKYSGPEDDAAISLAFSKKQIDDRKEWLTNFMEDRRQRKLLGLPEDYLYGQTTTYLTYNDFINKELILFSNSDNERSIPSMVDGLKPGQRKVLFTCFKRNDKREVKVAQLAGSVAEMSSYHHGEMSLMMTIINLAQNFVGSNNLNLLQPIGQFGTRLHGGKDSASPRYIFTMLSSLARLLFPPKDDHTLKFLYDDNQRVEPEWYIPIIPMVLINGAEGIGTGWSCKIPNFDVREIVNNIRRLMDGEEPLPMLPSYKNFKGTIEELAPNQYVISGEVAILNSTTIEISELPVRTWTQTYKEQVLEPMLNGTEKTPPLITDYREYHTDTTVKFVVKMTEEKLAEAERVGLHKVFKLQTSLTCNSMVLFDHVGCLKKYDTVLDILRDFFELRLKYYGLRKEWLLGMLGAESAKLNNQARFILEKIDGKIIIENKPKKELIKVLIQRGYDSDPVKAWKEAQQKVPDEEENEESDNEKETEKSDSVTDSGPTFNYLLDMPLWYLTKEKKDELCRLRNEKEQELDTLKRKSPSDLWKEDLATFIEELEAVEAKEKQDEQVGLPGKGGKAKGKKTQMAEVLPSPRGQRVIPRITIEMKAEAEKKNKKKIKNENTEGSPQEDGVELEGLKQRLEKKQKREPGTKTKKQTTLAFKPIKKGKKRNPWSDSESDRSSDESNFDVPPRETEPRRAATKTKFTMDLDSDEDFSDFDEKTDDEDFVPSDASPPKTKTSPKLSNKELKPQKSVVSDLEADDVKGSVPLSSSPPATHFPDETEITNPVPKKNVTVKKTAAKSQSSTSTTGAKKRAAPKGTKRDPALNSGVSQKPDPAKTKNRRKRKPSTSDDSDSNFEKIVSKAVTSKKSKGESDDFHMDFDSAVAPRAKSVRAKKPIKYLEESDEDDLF

On to `CC(=NNC(=O)CN1CCN(c2cc3c(cc2F)c(=O)c(C(=O)O)cn3C2CC2)CC1)c1ccc(Cl)cc1` [Compound 7b, 7-(4-(2-(2-(1-(4-Chlorophenyl)ethylidene)hydrazinyl)-2-oxoethyl)-piperazin-1-yl)-1-cyclopropyl-6-fluoro-4-oxo-1,4-dihydroquinoline-3-carboxylic acid], for which the melting point – broadly, the temperature, or range, at which the solid turns liquid – was 178 to 180 °C. Further, the half-maximal inhibitory concentration (IC50) (usually the concentration that gives 50% inhibition) in data set [1] was 19 ± 0.96 µM. Moreover, in data set [2], the IC50 was determined as 11.5 ± 0.63 µM. Further, in data set [3], the half-maximal inhibitory concentration (IC50) was 3.34 ± 0.18 µM; the inhibition (in general, the change of the read-out against control, counted positive when it falls) at 0.1 µM came to 18.4%; the inhibition at 1 µM came to 34%; the inhibition at 10 µM came to 60.3%. The inhibition at 100 µM in data set [3] stood at 85.2%.

`O=C(CN1CCN(c2cc3c(cc2F)c(=O)c(C(=O)O)cn3C2CC2)CC1)NN=C1CCCCC1` [Compound 7a, 7-(4-(2-(2-Cyclohexylidenehydrazinyl)-2-oxoethyl)piperazin-1-yl)-1-cyclopropyl-6-fluoro-4-oxo-1,4-dihydroquinoline-3-carboxylic acid] displayed a melting point of 256 to 258 °C. Besides, the IC50 in data set [1] is 9.35 ± 0.48 µM. Besides, in data set [2], the half-inhibitory concentration (IC50) turned out to be 3.88 ± 0.21 µM. In data set [3], the half-inhibitory concentration (IC50) was 4.99 ± 0.27 µM, the inhibition at 0.1 µM came out at 13.7%, the inhibition at 1 µM amounted to 27.9% and the inhibition at 10 µM was 55.9%. Moreover, the inhibition at 100 µM in data set [3] turned out to be 83.6%.

Take `O=C(CN1CCN(c2cc3c(cc2F)c(=O)c(C(=O)O)cn3C2CC2)CC1)NNC(=O)Nc1ccc(Cl)c(C(F)(F)F)c1` [Compound 9a, 7-(4-(2-(2-((4-Chloro-3-(trifluoromethyl)phenyl)carbamoyl)-hydrazinyl)-2-oxoethyl)piperazin-1-yl)-1-cyclopropyl-6-fluoro-4-oxo-1,4-dihydroquinoline-3-carboxylic acid]: the melting point was 186 to 188 °C. Besides, in data set [1], the 50% inhibitory concentration (IC50) was determined as 67.2 ± 3.42 µM. In addition, in data set [2], the half-inhibitory concentration (IC50) was 4.35 ± 0.24 µM. Moreover, in data set [3], the IC50 turned out to be 2.58 ± 0.14 µM, the inhibition at 0.1 µM is 23.6%, the inhibition at 1 µM came to 40.3% and the inhibition at 10 µM was determined as 57%. In addition, in data set [3], the inhibition at 100 µM is 86.5%.

`O=C(CN1CCN(c2cc3c(cc2F)c(=O)c(C(=O)O)cn3C2CC2)CC1)NNCC(=O)c1ccc([N+](=O)[O-])cc1` [Compound 10c, 1-Cyclopropyl-6-fluoro-7-(4-(2-(2-(2-(4-nitrophenyl)-2-oxoethyl)-hydrazinyl)-2-oxoethyl)piperazin-1-yl)-4-oxo-1,4-dihydroquinoline-3-carboxylic acid] showed a melting point of 221 to 223 °C. Moreover, in data set [1], the IC50 was determined as 3.25 ± 0.167 µM. In addition, the IC50 in data set [2] worked out at 10.1 ± 0.55 µM. In data set [3], the concentration for half-maximal inhibition (IC50) stood at 1.69 ± 0.09 µM, the inhibition at 0.1 µM was 24.8%, the inhibition at 1 µM amounted to 37.7% and the inhibition at 10 µM is 72.6%. Further, the inhibition at 100 µM in data set [3] was 90.2%.

Turning to `COc1cccc2c1C(=O)c1c(O)c3c(c(O)c1C2=O)C[C@@](O)(C(=O)CO)C[C@@H]3O[C@H]1C[C@H](N)[C@H](O)[C@H](C)O1` [Doxorubicin, reference compound], the values for the concentration for half-maximal inhibition (IC50) in data set [1], in data set [2] and in data set [3] were 23.1 ± 1.18 µM, 29.1 ± 1.56 µM and 1.72 ± 0.08 µM, respectively. The “Caspase-3 conc. (pg/ml* ± SD)” value in data set [4] worked out at 598.8 ± 8.63 pg/mL.
